In general, IC50 refers to the concentration that inhibits the measured activity by half. A higher IC50 goes with a need for much substance.

Sequence of human MGAT2 (Q3SYC2 whole entry): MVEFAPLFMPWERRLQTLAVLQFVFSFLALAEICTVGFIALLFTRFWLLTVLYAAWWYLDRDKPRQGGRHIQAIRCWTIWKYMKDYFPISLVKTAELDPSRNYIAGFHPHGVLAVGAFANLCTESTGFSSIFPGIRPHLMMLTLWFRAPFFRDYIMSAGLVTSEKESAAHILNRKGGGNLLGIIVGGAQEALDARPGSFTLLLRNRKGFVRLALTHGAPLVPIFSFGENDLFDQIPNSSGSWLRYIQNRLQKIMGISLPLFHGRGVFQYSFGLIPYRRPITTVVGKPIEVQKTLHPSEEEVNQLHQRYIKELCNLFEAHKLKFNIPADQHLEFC

This test concerns the target human MGAT2 (Homo sapiens (Human), UniProt Q3SYC2). Nature of the test: Measurement of human MGAT2 inhibitory activity. The test is classed as biochemical. The conditions noted are these: concentration exhibiting 50% enzyme inhibition. As for the experimental part:
Solutions of the compounds of the present invention in DMSO were each aliquoted into 0.2·μL portions in a 384-well polystyrene microplate produced by Corning Incorporated, and 5 μL of an enzyme solution prepared with an assay buffer (100 mmol/L phosphate buffer (pH 7.4) containing 2 mmol/L DTT) and 5 μL of a substrate solution (100 mmol/L phosphate buffer (pH 7.4), 30 μmol/L 2-Oleoylglycerol, 10 μmol/L Oleoyl-CoA) were added thereto, and the resultant was stirred and centrifuged, and incubated in a moist chamber at room temperature for 1 hour. After enzymatic reaction, 50 μL of a quenching solution (containing 0.2 μmol/L Diolein-d5, 0.4% formic acid, and 50% isopropanol) containing Internal Standard (IS) was added to terminate the reaction, and the resultant was sealed in a plate produced by Shimadzu GLC Ltd., and then stirred and centrifuged, and measurement was performed by using an electrospray ionization method with a RapidFire360 and Agilent 6550 Q-TOF mass spectrometer. Diolein as a reaction product (P) of 2-Oleoylglycerol as the substrate and an ammonium adduct ion of the IS were detected, and the peak intensity ratio, P/IS, was calculated from the peak heights to evaluate the inhibitory activity. Inhibitory activities with/without addition of enzyme were defined as Control (+)/Control (−), respectively, and the respective % inhibitions were defined as 0% inhibition and 100% inhibition. The inhibitory activity was calculated from the formula below with TIBCO Spotfire (produced by TIBCO Software Inc.) with the peak intensity ratio, P/IS, at the time of addition of the compound of the present invention being as Sample: […]
The molecule `CS(=O)(=O)CC(=O)Nc1c2c(nn1CCC1CC1)C[C@]1(CCc3cc(OCC(F)(F)F)ccc31)NC2=O` [Compound I-008] registered a concentration for half-maximal inhibition (IC50) of 2.78 nM.

In turn, `CS(=O)(=O)CC(=O)Nc1c2c(nn1-c1ccccn1)C[C@]1(CCc3cc(OCCCC(F)(F)F)ccc31)NC2=O` [Compound I-023] showed an IC50 of 6.5 nM. With `CS(=O)(=O)CC(=O)Nc1c2c(nn1-c1ccccc1)C[C@]1(CCc3cc(OCCCC(F)(F)F)ccc31)NC2=O` [Compound I-034] the figure was 18 nM; with `CS(=O)(=O)CC(=O)Nc1c2c(nn1-c1ccc(C#N)cn1)C[C@]1(CCc3cc(OCC(F)(F)F)ccc31)NC2=O` [Compound I-190], 2.9 nM.

For the molecule `CS(=O)(=O)CC(=O)Nc1c2c(nn1CCCC(F)(F)F)C[C@@]1(CCc3cc(OCC(F)(F)F)ccc31)NC2=O` [Compound I-212], the half-maximal inhibitory concentration (IC50) amounted to 6.9 nM. In the case of `Cc1ccc(-n2nc3c(c2NC(=O)CS(C)(=O)=O)C(=O)N[C@@]2(CCc4cc(OCC(F)(F)F)ccc42)C3)nc1` [Compound I-236], the IC50 stood at 2.8 nM. The molecule `CS(=O)(=O)CC(=O)Nc1c2c(nn1CCCOC(F)(F)F)C[C@]1(CCc3cc(OCC(F)(F)F)ccc31)NC2=O` [Compound I-253] gave an IC50 of 1.4 nM. Regarding `Cc1ccc(-n2nc3c(c2NC(=O)CS(C)(=O)=O)C(=O)N[C@@]2(CCOc4cc(OCC(F)(F)F)ccc42)C3)nc1` [Compound I-275], the IC50 is 2 nM.

In turn, `CS(=O)(=O)CC(=O)Nc1c2c(nn1CCCOC(F)(F)F)C[C@@]1(CCc3cc(OCC(F)(F)F)cc(F)c31)NC2=O` [II-093] returned an IC50 of 1.21 nM. `Cc1ccc(-n2nc3c(c2NC(=O)CS(C)(=O)=O)C(=O)N[C@@]2(CCc4cc(OCCCC(F)(F)F)ccc42)C3)nn1` [II-103] displayed a concentration for half-maximal inhibition (IC50) of 1.61 nM. In turn, `Cc1ccc(-n2nc3c(c2NC(=O)CS(C)(=O)=O)C(=O)N[C@@]2(CCOc4cc(OCC(C)(F)F)ccc42)C3)nc1` [II-151] gave a half-maximal inhibitory concentration (IC50) of 2.05 nM.

In turn, `Cc1ccc(-n2nc3c(c2NC(=O)CS(C)(=O)=O)C(=O)N[C@@]2(CCOc4cc(C5CC5)ccc42)C3)nc1` [II-168] came in with a half-inhibitory concentration (IC50) of 1.88 nM. For `CS(=O)(=O)CC(=O)Nc1c2c(nn1-c1ccc(C(F)F)cc1)C[C@]1(CCc3cc(OCC(F)(F)F)ccc31)NC2=O` [II-174], inhibition was half-maximal at 2.16 nM (IC50).

For `Cc1ccc(-n2nc3c(c2NC(=O)CS(C)(=O)=O)C(=O)N[C@@]2(CCOc4cc(F)cc(F)c42)C3)nc1` [II-203], half-maximal inhibition (IC50) was put at 2.98 nM. Turning to `CS(=O)(=O)CC(=O)Nc1c2c(nn1-c1ccc(F)c(F)c1)C[C@]1(CCOc3cc(CCC(F)(F)F)ccc31)NC2=O` [II-225], half-maximal inhibition (IC50) required 1.14 nM. With `Cc1cc(-n2nc3c(c2NC(=O)CS(C)(=O)=O)C(=O)N[C@@]2(CCOc4cc(OCCCC(F)(F)F)ccc42)C3)no1` [II-233] the figure was 0.22 nM.

In the case of `CS(=O)(=O)CC(=O)Nc1c2c(nn1-c1ccc(F)cn1)C[C@]1(CCOc3cc(OCC(F)(F)F)ccc31)NC2=O` [II-295], the half-inhibitory concentration (IC50) was below 1 nM. Next, `Cc1ccc(-c2nn3c(c2NC(=O)CS(C)(=O)=O)C(=O)N[C@@]2(CCc4cc(OCC(F)(F)F)ccc42)C3)nc1` [I′-006]: 2.25 nM; `Cc1ccc(-c2nn3c(c2NC(=O)CS(C)(=O)=O)C(=O)N[C@@]2(CCc4cc(OCC(F)(F)F)ccc42)C3)cc1` [I′-020]: 1.97 nM; `CS(=O)(=O)CC(=O)Nc1c(-c2ccc(F)c(F)c2)nn2c1C(=O)N[C@@]1(CCc3cc(OCC(F)(F)F)ccc31)C2` [I′-033]: 0.73 nM.
